Results from patent US8710198B2, “Caprazene as a novel compound and derivatives thereof, and caprazol as a novel compound and derivatives thereof” (Meiji Seika Pharma Co., Ltd., priority 2003, dated 2014).

Tests used:
Type in all cases: cell-based
[1] = test system: Staphylococcus aureus FDA209P; assay: Minimum growth inhibitory concentration on agar culture medium by serial dilution method (Japanese Society of Chemotherapy)
Protocol: (§1) Minimum growth inhibitory concentrations (mcg/ml) of caprazene-1′″-amide derivatives of the formula (II) against some of microorganisms were measured on an agar culture medium by a serial dilution method according to the standard method as provided by Japanese Society of Chemotherapy. For the cultivation of Mycobacterium smegmatis (one of […]), however, there was used an agar culture medium with the addition of 1% glycerine (the same applies to in the following tests).
(§2) Minimum growth inhibitory concentrations (mcg/ml) of some of the caprazene-1′″-ester derivative of the formula (III) against some of microorganisms were measured on an agar culture medium by a serial dilution method according to the standard method as provided by Japanese Society of Chemotherapy.
(§3) Minimum growth inhibitory concentrations (mcg/ml) of some of the caprazol-1′″-amide derivative of the formula (V) against a variety of microorganisms were measured on an agar medium by a serial dilution method according to the standard method as provided by Japanese Society of Chemotherapy.
as §3, with “caprazol-1′″-amide-3′″-ester” for “caprazol-1′″-amide”, “(VI)” for “(V)”
as §3, with “caprazol-3′″-ester derivative or caprazol-1′″-ester-3′″-ester” for “caprazol-1′″-amide”, “(VII)” for “(V)”
(§4) Minimum growth inhibitory concentrations (mcg/ml) of some of the derivative of the formula (VIII) against a variety of microorganisms were measured on an agar medium by a serial dilution method according to the standard method as provided by Japanese Society of Chemotherapy.

Micrococcus luteus FDA16 = assay: as above
Protocol: as §1, §2, §3
as §4, with “of the caprazol-1′″-amide-3′″-ester derivative of” for “of the derivative of”, “the formula (VI) against a” for “the formula (VIII) against a”
as §4, with “of the caprazol-3′″-ester derivative or caprazol-1′″-ester-3′″-ester derivative of” for “of the derivative of”, “the formula (VII) against a” for “the formula (VIII) against a”
as §4

[2] = test system: Mycobacterium smegmatis ATCC607; assay: Minimum growth inhibitory concentration on agar culture medium with 1% glycerine by serial dilution method; details: agar culture medium with the addition of 1% glycerine
Protocol: as §1, §2, §3
as §4, with “of the caprazol-1′″-amide-3′″-ester derivative of” for “of the derivative of”, “the formula (VI) against a” for “the formula (VIII) against a”
as §4, with “of the caprazol-3′″-ester derivative or caprazol-1′″-ester-3′″-ester derivative of” for “of the derivative of”, “the formula (VII) against a” for “the formula (VIII) against a”

Structure (SMILES) | Minimum growth inhibitory concentration (mcg/ml) against bacteria Staphylococcus aureus FDA209P [1] [µg/mL] | Minimum growth inhibitory concentration (mcg/ml) against bacteria Micrococcus luteus FDA16 (Micrococcus luteus FDA16) [µg/mL] | Minimum growth inhibitory concentration (mcg/ml) against bacteria Mycobacterium smegmatis ATCC607 [2] [µg/mL]
CCCCCCCCCCCCCCNC(=O)C1=CCN(C)C(C(OC2OC(CN)C(O)C2O)C2OC(n3ccc(=O)[nH]c3=O)C(O)C2O)C(=O)N1C (stereo not drawn) [Compound II-I] | 3.13 | 0.78 | 0.78
CCCCCCCCCCCCCCCNC(=O)C1=CCN(C)C(C(OC2OC(CNC(=O)OC(C)(C)C)C(O)C2O)C2OC(n3ccc(=O)[nH]c3=O)C(O)C2O)C(=O)N1C (stereo not drawn) [Compound II-J-N-Boc] | 12.5 | 12.5 | 25
CCCCCCCCCCCCCCCNC(=O)C1=CCN(C)C(C(OC2OC(CN)C(O)C2O)C2OC(n3ccc(=O)[nH]c3=O)C(O)C2O)C(=O)N1C (stereo not drawn) [Compound II-J] | 1.56 | 0.78 | 1.56
CCCCCCCCCCCCCCCCNC(=O)C1=CCN(C)C(C(OC2OC(CN)C(O)C2O)C2OC(n3ccc(=O)[nH]c3=O)C(O)C2O)C(=O)N1C (stereo not drawn) [Compound II-K] | 3.13 | 0.78 | 3.13
CCCCCCCCCCCCCCCCCNC(=O)C1=CCN(C)C(C(OC2OC(CN)C(O)C2O)C2OC(n3ccc(=O)[nH]c3=O)C(O)C2O)C(=O)N1C (stereo not drawn) [Compound II-L] | 1.56 | 1.56 | 3.13
CCCCCCCCCCCCCCCCCCNC(=O)C1=CCN(C)C(C(OC2OC(CN)C(O)C2O)C2OC(n3ccc(=O)[nH]c3=O)C(O)C2O)C(=O)N1C (stereo not drawn) [Compound II-M] | 6.25 | 0.78 | 3.13
CCCCCCCCCCCCCCCCCCCNC(=O)C1=CCN(C)C(C(OC2OC(CN)C(O)C2O)C2OC(n3ccc(=O)[nH]c3=O)C(O)C2O)C(=O)N1C (stereo not drawn) [Compound II-N] | 6.25 | 0.78 | 50
CCCCCCCCCCCCCCCCCCCCNC(=O)C1=CCN(C)C(C(OC2OC(CN)C(O)C2O)C2OC(n3ccc(=O)[nH]c3=O)C(O)C2O)C(=O)N1C (stereo not drawn) [Compound II-O] | 3.13 | 3.13 | 25
CCCCCCCCCCCCCCCCCCCCCNC(=O)C1=CCN(C)C(C(OC2OC(CN)C(O)C2O)C2OC(n3ccc(=O)[nH]c3=O)C(O)C2O)C(=O)N1C (stereo not drawn) [Compound II-P] | 6.25 | 3.13 | 50
CN1C(=O)C(C(OC2OC(CN)C(O)C2O)C2OC(n3ccc(=O)[nH]c3=O)C(O)C2O)N(C)CC=C1C(=O)NC1CCCCCCCCCCC1 (stereo not drawn) [Compound II-Q] | 100 | 0.20 | 3.13
CCCCCCCCC=CCCCCCCCCNC(=O)C1=CCN(C)C(C(OC2OC(CN)C(O)C2O)C2OC(n3ccc(=O)[nH]c3=O)C(O)C2O)C(=O)N1C (stereo not drawn) [Compound II-R] | 1.56 | 1.56 | 1.56
CCCCCCCCCCOC(=O)C1=CCN(C)C(C(OC2OC(CN)C(O)C2O)C2OC(n3ccc(=O)[nH]c3=O)C(O)C2O)C(=O)N1C (stereo not drawn) [Compound III-AA] | 12.5 | 1.56 | 12.5
CCCCCCCCCCCCCOC(=O)C1=CCN(C)C(C(OC2OC(CN)C(O)C2O)C2OC(n3ccc(=O)[nH]c3=O)C(O)C2O)C(=O)N1C (stereo not drawn) [Compound III-BB] | 3.13 | 3.13 | 12.5
CCCCCCCCCCCCCCCCCCOC(=O)C1=CCN(C)C(C(OC2OC(CN)C(O)C2O)C2OC(n3ccc(=O)[nH]c3=O)C(O)C2O)C(=O)N1C (stereo not drawn) [Compound III-CC] | 12.5 | 6.25 | >100
CCCCCCCCCC=CCOC(=O)C1=CCN(C)C(C(OC2OC(CN)C(O)C2O)C2OC(n3ccc(=O)[nH]c3=O)C(O)C2O)C(=O)N1C (stereo not drawn) [Compound III-EE] | 6.25 | 1.56 | 12.5
CCCCCCC#CCCOC(=O)C1=CCN(C)C(C(OC2OC(CN)C(O)C2O)C2OC(n3ccc(=O)[nH]c3=O)C(O)C2O)C(=O)N1C (stereo not drawn) [Compound III-GG] | 50 | 6.25 | 25
CCCCCCNC(=O)C1C(O)CN(C)C(C(OC2OC(CN)C(O)C2O)C2OC(n3ccc(=O)[nH]c3=O)C(O)C2O)C(=O)N1C (stereo not drawn) [Compound V-A] | 50 | 50 | 12.5
CCCCCCCCNC(=O)C1C(O)CN(C)C(C(OC2OC(CN)C(O)C2O)C2OC(n3ccc(=O)[nH]c3=O)C(O)C2O)C(=O)N1C (stereo not drawn) [Compound V-C] | 25 | 25 | 6.25
CCCCCCCCCCNC(=O)C1C(O)CN(C)C(C(OC2OC(CN)C(O)C2O)C2OC(n3ccc(=O)[nH]c3=O)C(O)C2O)C(=O)N1C (stereo not drawn) [Compound V-E] | 25 | 25 | 6.25
CCCCCCCCCCCNC(=O)C1C(O)CN(C)C(C(OC2OC(CN)C(O)C2O)C2OC(n3ccc(=O)[nH]c3=O)C(O)C2O)C(=O)N1C (stereo not drawn) [Compound V-F] | 12.5 | 25 | 6.25
CCCCCCCCCCCCNC(=O)C1C(O)CN(C)C(C(OC2OC(CN)C(O)C2O)C2OC(n3ccc(=O)[nH]c3=O)C(O)C2O)C(=O)N1C (stereo not drawn) [Compound V-G, caprazol-1′″-dodecyl-amide derivative] | 12.5 | 25 | 6.25
CCCCCCCCC=CCCCCCCCCNC(=O)C1C(O)CN(C)C(C(OC2OC(CN)C(O)C2O)C2OC(n3ccc(=O)[nH]c3=O)C(O)C2O)C(=O)N1C (stereo not drawn) [Compound V-R] | 12.5 | 25 | 6.25
CCCCCCCCNC(=O)C1C(OC(=O)CCCCCCCC)CN(C)C(C(OC2OC(CN)C(O)C2O)C2OC(n3ccc(=O)[nH]c3=O)C(O)C2O)C(=O)N1C (stereo not drawn) [Compound VI-C] | 12.5 | 6.25 | 6.25
